Test results: patent publication US8558011B2, “Cold menthol receptor-1 antagonists” (Janssen Pharmaceutica, NV, priority 2010, dated 2013)
Where “and” joins values, the source holds several entries; their conditions need not be identical. Equal entries are not always repeated.

Molecular target: T1, canine TRPM8 (Canis lupus familiaris, UniProt Q1A7N1)
T1 construct: expressed in transfected cells
Assay: In Vitro Canine TRPM8 Functional Assay (Ca2+-sensitive fluorescent dye, icilin activation, FLIPR/FDSS)
Assay type: cell-based
Conditions: HEK293 cells stably expressing canine TRPM8, icilin activation; for IC50: eight-point dose-response; for % I (0.5 μM): compound at 0.5 μM; for % I (1 μM): compound at 1 μM
Protocol: The functional activity of compounds of Formula (I) was determined by measuring changes in intracellular calcium concentration using a Ca^2+-sensitive fluorescent dye. The changes in fluorescent signal were monitored by a fluorescence plate reader, either a FLIPR™ (Molecular Devices) or FDSS (Hamamatsu).
HEK293 cells stably expressing canine TRPM8 were routinely grown as monolayers in Dulbecco's minimum essential medium supplemented with 10% FBS, 1 mM L-glutamine, 100 units/mL penicillin, 100 ug/mL streptomycin and 400 μg/mL G418. Cells were maintained in 5% CO2 at 37° C. At 24 hrs prior to assay, cells were seeded in clear-base poly-D-lysine coated 384-well plates (BD Biosciences, NJ, USA) at a density of 5,000 cells per well in culture medium and grown overnight in 5% CO2 at 37° C. On assay day, growth media was removed and cells were loaded with Calcium 3 Dye (Molecular Devices) for 35 min at 37° C., under 5% CO2 and then for 25 min at room temperature and atmosphere. Subsequently, cells were tested for agonist-induced increases in intracellular Ca^2+ levels using FLIPR™ or FDSS. Cells were challenged with a compound of Formula (I) (at varying concentrations) and intracellular Ca^2+ was measured for 5 min prior to the addition of icilin to all wells to achieve a final concentration which produces approximately an 80% maximal response.
Basal FI was subtracted prior to normalizing data to percent of maximal response. Curves were generated using the average of quadruplicate wells for each data point, were analyzed using nonlinear regression of either sigmoidal dose response or sigmoidal dose response (variable slope). Finally, the EC50 and IC50 values were calculated with the best-fit dose curve determined by GraphPad Prism.

T1 sequence (Q1A7N1 1-1104): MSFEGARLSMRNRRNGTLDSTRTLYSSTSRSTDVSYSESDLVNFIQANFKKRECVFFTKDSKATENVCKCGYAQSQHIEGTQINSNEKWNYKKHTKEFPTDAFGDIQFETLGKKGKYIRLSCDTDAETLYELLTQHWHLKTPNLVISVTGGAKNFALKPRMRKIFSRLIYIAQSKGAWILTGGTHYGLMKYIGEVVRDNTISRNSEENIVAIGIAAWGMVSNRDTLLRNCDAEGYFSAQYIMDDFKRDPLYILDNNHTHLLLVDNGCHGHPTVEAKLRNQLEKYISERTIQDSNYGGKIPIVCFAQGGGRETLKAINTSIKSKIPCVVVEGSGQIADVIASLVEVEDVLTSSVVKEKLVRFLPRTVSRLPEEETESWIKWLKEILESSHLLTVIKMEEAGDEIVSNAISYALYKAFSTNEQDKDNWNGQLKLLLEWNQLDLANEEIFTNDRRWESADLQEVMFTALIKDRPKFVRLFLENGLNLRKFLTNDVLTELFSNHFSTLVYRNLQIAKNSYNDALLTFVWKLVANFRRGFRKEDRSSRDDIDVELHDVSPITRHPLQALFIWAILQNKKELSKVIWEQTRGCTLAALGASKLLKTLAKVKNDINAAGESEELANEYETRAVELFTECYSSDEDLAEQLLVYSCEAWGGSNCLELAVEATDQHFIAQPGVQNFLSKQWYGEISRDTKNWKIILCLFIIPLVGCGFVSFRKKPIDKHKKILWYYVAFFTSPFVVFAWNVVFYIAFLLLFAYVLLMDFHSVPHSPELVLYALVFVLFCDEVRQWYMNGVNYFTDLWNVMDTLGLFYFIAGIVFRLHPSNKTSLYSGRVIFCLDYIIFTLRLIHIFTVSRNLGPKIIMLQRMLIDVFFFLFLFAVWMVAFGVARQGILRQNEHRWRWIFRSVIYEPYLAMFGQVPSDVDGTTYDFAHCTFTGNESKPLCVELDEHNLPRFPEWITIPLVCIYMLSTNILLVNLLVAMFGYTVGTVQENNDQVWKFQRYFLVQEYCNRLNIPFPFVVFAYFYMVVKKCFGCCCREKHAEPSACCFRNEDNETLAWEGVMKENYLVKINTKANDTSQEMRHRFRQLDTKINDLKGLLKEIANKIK

Row | SMILES | IC50 | % I (0.5 μM) | % I (1 μM) | % I (5 μM) (compound at 5 μM)
1 | CC(C)OP(=O)(OC(C)C)C(Cc1ccc(Cl)c(C(F)(F)F)c1)c1sc2ccccc2c1Cl (stereo not drawn) [Cpd 167] | 97 nM | 104% |  | 
2 | CC(C)OP(=O)(OC(C)C)C(Cc1cc(F)cc(C(F)(F)F)c1)c1sc2ccccc2c1Cl (stereo not drawn) [Cpd 169] | 96 nM | 104% |  | 
3 | CCOP(=O)(OCC)C(Cc1ccc(S(=O)(=O)C(F)(F)F)cc1)c1sc2ccccc2c1Cl (stereo not drawn) [Cpd 300] | 89 nM | 103% |  | 
4 | COc1cc(CC(c2sc3ccccc3c2Br)P(=O)(OC(C)C)OC(C)C)c(F)cc1Cl (stereo not drawn) [Cpd 165] | 86 nM | 102% |  | 
5 | CCOP(=O)(OCC)C(Cc1ccc(F)cc1)c1sc2ccccc2c1Cl (stereo not drawn) [Cpd 284] | 79 nM and 65 nM | 103% and 102% |  | 
6 | CCOP(=O)(OCC)C(Cc1ccc(F)c(F)c1)c1oc2cccc(F)c2c1Br (stereo not drawn) [Cpd 206] | 98 nM |  | 100% | 
7 | CCOP(=O)(OCC)C(Cc1ccc(SC)cc1)c1sc2ccccc2c1Br (stereo not drawn) [Cpd 247] | 121 nM | 103% |  | 
8 | CCOP(=O)(OCC)C(Cc1ccc(F)c(F)c1)c1sc2cccc(F)c2c1Br (stereo not drawn) [Cpd 224] | 44 nM | 102% |  | 
9 | CCOP(=O)(OCC)C(Cc1ccccc1Cl)c1sc2ccccc2c1Br (stereo not drawn) [Cpd 147] | 125 nM | 103% |  | 
10 | CCOP(=O)(OCC)C(Cc1ccc(SC(F)(F)F)cc1)c1sc2ccccc2c1Br (stereo not drawn) [Cpd 153] | 43 nM | 103% |  | 
11 | COc1ccc(CC(c2sc3ccccc3c2Br)P(=O)(OC(C)C)OC(C)C)c(F)c1 (stereo not drawn) [Cpd 163] | 20 nM | 103% |  | 
12 | CCOP(=O)(OCC)C(C)(Cc1ccc(F)c(F)c1)c1sc2ccccc2c1C (stereo not drawn) [Cpd 79, [2-(3,4-Difluoro-phenyl)-1-methyl-1-(3-methyl-benzo[b]-thiophen-2-yl)-ethyl]-phosphonic acid diethyl ester] |  |  | 88% | 
13 | CCOP(=O)(OCC)C(Cc1ccc(F)c(F)c1)c1sc2ccccc2c1-c1ccc(F)cc1 (stereo not drawn) [Cpd 220] | 207 nM | 101% |  | 
14 | CCOP(=O)(OCC)C(Cc1ccc(F)c(F)c1)c1oc2ccccc2c1C (stereo not drawn) [Cpd 9, [2-(3,4-Difluoro-phenyl)-1-(3-methyl-benzofuran-2-yl)-ethyl]-phosphonic acid diethyl ester] |  |  | 100% | 
15 | CCOP(=O)(Cc1cc2ccccc2s1)OCc1c(Cl)cccc1Cl (stereo not drawn) [Cpd 94, Benzo[b]thiophen-2-ylmethyl-phosphonic acid 2,6-dichloro-benzyl ester ethyl ester] |  |  | 79% | 
16 | CC(C)OP(=O)(OC(C)C)C(Cc1cc(C(F)(F)F)cc(C(F)(F)F)c1)c1sc2ccccc2c1Cl (stereo not drawn) [Cpd 171] | 221 nM | 95% |  | 
17 | CCOP(=O)(OCC)C(Cc1cc(C(F)(F)F)ccc1Cl)c1sc2ccccc2c1Br (stereo not drawn) [Cpd 148] | 172 nM | 103% |  | 
18 | CCOP(=O)(OCC)C(Cc1ccc(Cl)c(C(F)(F)F)c1)c1sc2ccccc2c1Cl (stereo not drawn) [Cpd 287] | 124 nM | 103% |  | 
19 | CCOP(=O)(OCC)C(Cc1ccc(SC(F)(F)F)cc1)c1sc2ccccc2c1Cl (stereo not drawn) [Cpd 283] | 125 nM | 103% |  | 
20 | CCOP(=O)(OCC)C(Cc1ccc(F)c(C(F)(F)F)c1)c1sc2cccc(F)c2c1Br (stereo not drawn) [Cpd 223] | 52 nM | 102% |  | 
21 | CCOP(=O)(OCC)C(Cc1cccc([N+](=O)[O-])c1)c1sc2ccccc2c1Br (stereo not drawn) [Cpd 315] |  | 103% |  | 
22 | CCOP(=O)(OCC)C(Cc1cc(C(F)(F)F)cc(C(F)(F)F)c1)c1sc2ccccc2c1Cl (stereo not drawn) [Cpd 282] | 235 nM | 100% |  | 
23 | CC(C)OP(=O)(OC(C)C)C(Cc1ccc(Cl)c(F)c1)c1sc2ccccc2c1Cl (stereo not drawn) [Cpd 302] | 79 nM | 103% |  | 
24 | CCOP(=O)(OCC)C(Cc1ccc(OC(F)(F)F)c(Cl)c1)c1sc2ccccc2c1Br (stereo not drawn) [Cpd 149] | 60 nM | 103% |  | 
25 | CCOP(=O)(OCC)C(Cc1ccc(F)c(F)c1)c1sc2cc(F)ccc2c1C (stereo not drawn) [Cpd 16, [2-(3,4-Difluoro-phenyl)-1-(6-fluoro-3-methyl-benzo[b]-thiophene-2-yl)-ethyl]-phosphonic acid diethyl ester] |  |  | 100% | 
26 | CC(C)OP(=O)(OC(C)C)C(Cc1cccc(Cl)c1)c1sc2ccccc2c1Br (stereo not drawn) [Cpd 166] | 18 nM and 14 nM | 102% | 103% | 
27 | CC(C)OP(=O)(OC(C)C)C(Cc1cc(Cl)ccc1F)c1sc2ccccc2c1Cl (stereo not drawn) [Cpd 303] | 49 nM | 102% |  | 

Row | SMILES | IC50 | % I (0.5 μM) | % I (1 μM) | % I (5 μM) (compound at 5 μM)
28 | COc1c(F)c(F)c(CC(c2sc3ccccc3c2Br)P(=O)(OC(C)C)OC(C)C)c(F)c1F (stereo not drawn) [Cpd 161] | 19 nM | 103% |  | 
29 | CCOP(=O)(OCC)C(Cc1ccc(F)c(F)c1)c1sc2ccc(F)cc2c1C (stereo not drawn) [Cpd 45, [2-(3,4-Difluoro-phenyl)-1-(5-fluoro-3-methyl-benzo[b]thiophene-2-yl)-ethyl]-phosphonic acid diethyl ester] |  |  | 100% | 
30 | CC(C)OP(=O)(OC(C)C)C(Cc1ccc(F)cc1)c1sc2ccccc2c1Cl (stereo not drawn) [Cpd 306] |  | 101% and 102% |  | 
31 | CCOP(=O)(OCC)C(Cc1ccccc1Cl)c1sc2ccccc2c1C (racemic) [Cpd 48] | 169 nM |  | 100% | 
32 | CCOP(=O)(OCC)C(Cc1c(F)c(F)c(O)c(F)c1F)c1sc2ccccc2c1Br (stereo not drawn) [Cpd 228] | 129 nM | 94% |  | 
33 | CC(C)OP(=O)(OC(C)C)C(Cc1ccc(SC(F)(F)F)cc1)c1sc2ccccc2c1Cl (stereo not drawn) [Cpd 304] | 28 nM | 102% |  | 
34 | CCOP(=O)(OCC)C(Cc1cc(Cl)ccc1Cl)c1sc2ccccc2c1C (racemic) [Cpd 47] | 167 nM |  | 100% | 
35 | CC(C)OP(=O)(OC(C)C)C(Cc1c(F)c(F)c(O)c(F)c1F)c1sc2ccccc2c1Br (stereo not drawn) [Cpd 229] | 156 nM | 95% |  | 
36 | CCOP(=O)(OCC)C(Cc1ccc(C(F)(F)F)c(F)c1)c1sc2ccccc2c1Br (stereo not drawn) [Cpd 144] | 58 nM | 101% |  | 
37 | CCOP(=O)(OCC)C(Cc1cccc(OC)c1F)c1sc2ccccc2c1Br (stereo not drawn) [Cpd 162] | 32 nM | 103% |  | 
38 | CCOP(=O)(OCC)C(Cc1ccccc1C(F)(F)F)c1sc2ccccc2c1Cl (stereo not drawn) [Cpd 279] | 291 nM | 97% |  | 
39 | CCOP(=O)(OCC)C(Cc1ccc(F)c(F)c1)c1sc2ccccc2c1-c1ccsc1 (stereo not drawn) [Cpd 208] | 104 nM | 104% |  | 
40 | CC(C)OP(=O)(OC(C)C)C(Cc1cc(O)c(Cl)cc1F)c1sc2ccccc2c1Br (stereo not drawn) [Cpd 232] | 63 nM | 99% |  | 
41 | CCOP(=O)(OCC)C(Cc1cccc(C(F)(F)F)c1)c1cc2ccccc2s1 (racemic) [Cpd 39] | 141 nM |  | 100% | 
42 | CC(C)OP(=O)(OC(C)C)C(Cc1ccc(C(F)(F)F)cc1F)c1sc2ccccc2c1Br (stereo not drawn) [Cpd 289] | 51 nM | 103% |  | 
43 | CC(C)OP(=O)(OC(C)C)C(Cc1ccc(F)c(Cl)c1)c1sc2ccccc2c1Br (stereo not drawn) [Cpd 248] | 21 nM | 104% |  | 
44 | CCOP(=O)(OCC)C(Cc1cc(OC)c(Cl)cc1F)c1sc2ccccc2c1Br (stereo not drawn) [Cpd 164] | 82 nM | 94% |  | 
45 | CC(C)OP(=O)(OC(C)C)C(Cc1ccc(F)c(F)c1)c1sc2ncccc2c1Br (stereo not drawn) [Cpd 207] | 51 nM | 99% |  | 
46 | CCOP(=O)(OCC)C(Cc1ccc(F)c(F)c1)c1sc2cccc(Cl)c2c1C (stereo not drawn) [Cpd 65, [1-(4-Chloro-3-methyl-benzo[b]thiophen-2-yl)-2-(3,4-difluoro-phenyl)-ethyl]-phosphonic acid diethyl ester] |  |  | 100% | 
47 | CCOP(=O)(OCC)C(Cc1cccc(C(F)(F)F)c1Cl)c1sc2ccccc2c1Br (stereo not drawn) [Cpd 151] | 120 nM | 103% |  | 
48 | CC(=O)OCCOP(=O)(OCCOC(C)=O)C(Cc1ccc(F)c(F)c1)c1sc2ccccc2c1Br (stereo not drawn) [Cpd 213] | 202 nM | 100% |  | 
49 | CCOP(=O)(OCC)C(Cc1ccc(F)c(C(F)(F)F)c1)c1sc2ccccc2c1Cl (stereo not drawn) [Cpd 294] | 118 nM | 103% |  | 
50 | CCOP(=O)(Cc1cc2ccccc2s1)OCc1ccccc1Cl (stereo not drawn) [Cpd 105] | 1010 nM |  | 48% | 100%
51 | CC(C)OP(=O)(OC(C)C)C(Cc1ccccc1C(F)(F)F)c1sc2ccccc2c1Cl (stereo not drawn) [Cpd 173] | 140 nM | 103% |  | 
52 | CCOP(=O)(OCC)C(Cc1ccc(C(F)(F)F)cc1)c1sc2ccccc2c1Cl (stereo not drawn) [Cpd 285] | 125 nM | 103% |  | 
53 | CC(C)OP(=O)(OC(C)C)C(Cc1cccc(O)c1F)c1sc2ccccc2c1Br (stereo not drawn) [Cpd 230] | 10 nM | 97% |  | 
54 | CCOP(=O)(OCC)C(Cc1cccc(Cl)c1Cl)c1sc2ccccc2c1C (racemic) [Cpd 35] | 125 nM |  | 100% | 
